Values joined by “and” are separate entries in the source; they are usually repeats but may differ in a detail not shown here. Equal entries are not always repeated. “Also recorded” adds a separate entry of the source. Where two headings read alike, the source gives them in different places. Each block holds one compound with its values, some of them ahead of it.
How the values were obtained:
Format in all cases: physicochemical
[1] = Storage at 40° C./75% RH for 7 days (one week), form checked by XRPD; conditions: for Storage at 40° C./75% RH for one week (row head not given): Compound IV salts; for Storage at 40° C./75% RH for one week (row head not given) / Storage at 40° C./75% RH for 7 days: form by XRPD; for XRPD after storage at 40° C./75% RH for 7 days: one week (7 days); for Storage at 40° C./75% RH for 7 days: Compound III salts
Description: The suspensions were then cooled down to 5° C. at 0.1° C./min and were held at this temperature for 16 hrs. Stirring (500 rpm) was maintained throughout. Any gums that formed were maturated between 25 and 50° C. (4 hours at each temperature for 24 hrs). The suspensions were isolated by filtration under suction and air dried then analysed by XRPD. Any new patterns identified by XRPD were analysed further by NMR, TGA, DSC and stability at 40 C/75% RH for 1 week.

[2] = Solubility measurements in SGF, FeSSIF and FaSSIF with XRPD of residual solids; conditions: for solubility in FeSSIF (in words): simulated fed state intestinal fluid; for solubility in all media (in words): FeSSIF and FaSSIF; for Average Solubility / XRPD of residual solid / pH at 24 hrs / Solubility: Compound III-1, HCl and sulfate salts; for Solubility: single replicate
From the text: The results from the solubility measurements in simulated gastric fluid (SGF), simulated fed state conditions in the small intestines (FeSSIF), and simulated fasting state conditions in the small intestines fluid (FaSSIF) are summarised in Table 12. The salts show reduced solubility in SGF compared to the free form.
Crystalline FB Form A, HCl Form A, and the sufate salt Form A were scaled up for solubility analysis.
HCl Form A was successfully scaled up for solubility analysis.

[3] = Solubility assessment in solvents by aliquot addition (5-40 vol, 25° C., then heating)
Description: Compound II-1 (40 mg) was treated with an aliquot of solvent (200 μl for 5 vol, 400 μl for 10 vol, 800 μl for 20 vol) and left to stir at 25° C. for 15 minutes. After 15 minutes, suspensions were treated with another aliquot of solvent and left to stir for the same duration again. Any solutions were removed from stirring and further solvent additions. This procedure was repeated up to 40 vol.
At 40 vol, any remaining suspensions were heated to 40° C. at a rate of 10° C./min. Samples that remained as suspensions at 40° C. were moved to the maturation chamber (RT/50° C.) for 4 days. All solutions from solvent additions were heated to 50° C. before cooling to 5° C. at a rate of 0.1° C./min, then held at 5° C. overnight. […]

[4] = simulated fasting state intestinal fluid

SMILES: C#Cc1cc(C)c(-c2c(-c3ccc(Oc4nccc(C)n4)c(F)c3)c3c(C)ncnc3n2C)c(C)n1.Cl [HC1 Form A]
Storage at 40° C./75% RH for one week (row head not given) [1]: Reduced crystallinity -

SMILES: Br.C=C(C)C(=O)Nc1ccc(-c2c(C3=CC[C@H](C(=O)N4CCCC4)CC3)c3c(N)ncnc3n2C)c(C)c1 [Compound II-3]
XRPD after storage at 40° C./75% RH for 7 days [1]: convert to an amorphous form

Storage at 40° C./75% RH for 7 days [1]: Change in form -
SMILES: Br.C#Cc1cc(OC)c(-c2c(-c3ccc(Oc4nccc(C)n4)c(F)c3)c3c(C)ncnc3n2C)cn1 [HBr Form A]

SMILES: C=C(C)C(=O)Nc1ccc(-c2c(C3=CC[C@H](C(=O)N4CCCC4)CC3)c3c(N)ncnc3n2C)c(C)c1.Cc1ccc(S(=O)(=O)O)cc1 [Compound II-4]
XRPD after storage at 40° C./75% RH for 7 days ([1]; listed as Compound II pTSA Form A): XRPD unchanged
XRPD after storage at 40° C./75% RH for 7 days ([1]; listed as Compound II pTSA Form B): conversion to pTSA Form A; also recorded: Converted to pTSA
XRPD after storage at 40° C./75% RH for 7 days ([1]; listed as Compound II pTSA Form C): conversion to pTSA Form A; also recorded: Converted to pTSA
XRPD after storage at 40° C./75% RH for 7 days ([1]; listed as Compound II-1 tosylate salt): no change
solubility in FaSSIF (in words) [2]: highest solubility

XRPD after storage at 40° C./75% RH for 7 days ([1]; listed as Compound III-1 sulfate salt): small changes in the XRPD diffractogram
XRPD of residual solids after solubility measurement ([2]; FaSSIF): too poorly crystalline to assign
SMILES: C#Cc1cc(OC)c(-c2c(-c3ccc(Oc4nccc(C)n4)c(F)c3)c3c(C)ncnc3n2C)cn1.O=S(=O)(O)O [Compound III-4]
solubility in FaSSIF (in words) [2, 4]: slightly more soluble than the chloride salt
solubility in FeSSIF (in words) [2]: slightly more soluble than the chloride salt

SMILES: C=C(C)C(=O)Nc1ccc(-c2c(C3=CC[C@H](C(=O)N4CCCC4)CC3)c3c(N)ncnc3n2C)c(C)c1.O=S(=O)(O)c1ccccc1 [Compound II-6]
XRPD after storage at 40° C./75% RH for 7 days [1]: no change
solubility in all media (in words) ([2]; SGF): low solubility

SMILES: C#Cc1cc(C)c(-c2c(-c3ccc(Oc4nccc(C)n4)c(F)c3)c3c(C)ncnc3n2C)c(C)n1 [Compound IV-1, 6-(6-ethynyl-2,4-dimethylpyridin-3-yl)-5-(3-fluoro-4-((4-methylpyrimidin-2-yl)oxy)phenyl)-4,7-dimethyl-7H-pyrrolo[2,3-d]pyrimidine]
XRPD of residual solids after solubility measurement ([2]; all media (SGF, FeSSIF, FaSSIF)): remained unchanged
solubility in FaSSIF (in words) [2, 4]: lowest solubility
Observation after treatment ([3]; 2-Propanol, after cooling from 50° C. to 5° C.): Clear solution
Observation after treatment ([3]; 10% Water/IPA, after cooling from 50° C. to 5° C.): Clear solution
Observation after treatment ([3]; 10% Water/MeCN, after cooling from 50° C. to 5° C.): Clear solution
solubility in the solvents tested (in words) ([3]; 13 solvents, up to 40 vol): soluble in all but three of the solvents tested
Observation after treatment ([3]; Acetone, after cooling from 50° C. to 5° C.): Clear solution
Observation after treatment ([3]; Ethanol, after cooling from 50° C. to 5° C.): Clear solution
Observation after treatment ([3]; Ethyl acetate, after cooling from 50° C. to 5° C.): Clear solution
Observation after treatment ([3]; Isopropyl acetate, after cooling from 50° C. to 5° C.): Clear solution
Observation after treatment ([3]; MEK, after cooling from 50° C. to 5° C.): Clear solution
Observation after treatment ([3]; Methanol, after cooling from 50° C. to 5° C.): Clear solution
Observation after treatment ([3]; TBME, 40 vol, after maturation (RT/50° C.) 4 days): Suspension
Observation after treatment ([3]; THF, after cooling from 50° C. to 5° C.): Clear solution
Observation after treatment ([3]; Water, 40 vol, after maturation (RT/50° C.) 4 days): Suspension
Observation after treatment ([3]; n-Heptane, 40 vol, after maturation (RT/50° C.) 4 days): Suspension

XRPD after storage at 40° C./75% RH for 7 days [1]: change form
SMILES: Br.C#Cc1cc(OC)c(-c2c(-c3ccc(Oc4nccc(C)n4)c(F)c3)c3c(C)ncnc3n2C)cn1 [Compound III-3]

Storage at 40° C./75% RH for 7 days [1]: No change
SMILES: C#Cc1cc(OC)c(-c2c(-c3ccc(Oc4nccc(C)n4)c(F)c3)c3c(C)ncnc3n2C)cn1.O=C(O)C(O)C(O)C(=O)O [TAR Form A]

XRPD after storage at 40° C./75% RH for 7 days ([1]; listed as Compound III HCl Form A): converting to HCl Form B
XRPD after storage at 40° C./75% RH for 7 days ([1]; listed as Compound III HCl Form B): large reduction in crystallinity
XRPD after storage at 40° C./75% RH for 7 days ([1]; listed as Compound III HCl Form D): no change in form
XRPD after storage at 40° C./75% RH for 7 days ([1]; listed as Compound III HCl Patterns 3 and 5): no change in form
XRPD after storage at 40° C./75% RH for 7 days ([1]; listed as Compound III-1 chloride salt): change form
XRPD of residual solids after solubility measurement ([2]; FaSSIF): new form
solubility in FeSSIF (in words) [2]: lower solubility than the free form
SMILES: C#Cc1cc(OC)c(-c2c(-c3ccc(Oc4nccc(C)n4)c(F)c3)c3c(C)ncnc3n2C)cn1.Cl [Compound III-2]

SMILES: C#Cc1cc(C)c(-c2c(-c3ccc(Oc4nccc(C)n4)c(F)c3)c3c(C)ncnc3n2C)c(C)n1.Cl [Compound IV-2]
XRPD after storage at 40° C./75% RH for 7 days [1]: no change to form
XRPD of residual solids after solubility measurement ([2]; FaSSIF): converted to free form Form A
XRPD of residual solids after solubility measurement ([2]; FeSSIF): converted to free form Form A
solubility in all media (in words) ([2]; SGF): more soluble than the tosylate salt
solubility in SGF (in words) ([2]; simulated gastric fluid): completely dissolved

XRPD after storage at 40° C./75% RH for 7 days [1]: No change in form
SMILES: C#Cc1cc(OC)c(-c2c(-c3ccc(Oc4nccc(C)n4)c(F)c3)c3c(C)ncnc3n2C)cn1.O=C(O)C(O)C(O)C(=O)O [Compound III-6]

SMILES: C#Cc1cc(C)c(-c2c(-c3ccc(Oc4nccc(C)n4)c(F)c3)c3c(C)ncnc3n2C)c(C)n1.Cc1ccc(S(=O)(=O)O)cc1 [pTSA Form A]
Storage at 40° C./75% RH for one week (row head not given) [1]: Change in form -

XRPD after storage at 40° C./75% RH for 7 days [1]: lose crystallinity
SMILES: C#Cc1cc(OC)c(-c2c(-c3ccc(Oc4nccc(C)n4)c(F)c3)c3c(C)ncnc3n2C)cn1.CS(=O)(=O)O [Compound III-5]

SMILES: C=C(C)C(=O)Nc1ccc(-c2c(C3=CC[C@H](C(=O)N4CCCC4)CC3)c3c(N)ncnc3n2C)c(C)c1.O=C(O)/C=C/C(=O)O [Compound II-7]
XRPD after storage at 40° C./75% RH for 7 days [1]: no change

SMILES: C#Cc1cc(C)c(-c2c(-c3ccc(Oc4nccc(C)n4)c(F)c3)c3c(C)ncnc3n2C)c(C)n1.CS(=O)(=O)O [Compound IV-4]
XRPD after storage at 40° C./75% RH for 7 days [1]: lose crystallinity

SMILES: C#Cc1cc(C)c(-c2c(-c3ccc(Oc4nccc(C)n4)c(F)c3)c3c(C)ncnc3n2C)c(C)n1.O=S(=O)(O)c1ccccc1 [Compound IV-5]
XRPD after storage at 40° C./75% RH for 7 days [1]: change form

Average Solubility ([2]; FaSSIF): 1950 µg/mL
XRPD of residual solid ([2]; FaSSIF): Poorly crystalline
pH at 24 hrs ([2]; FaSSIF): 2.6 and 2.7
Solubility ([2]; FaSSIF): 2000 µg/mL and 1900 µg/mL
Average Solubility ([2]; FeSSIF): 230 µg/mL
XRPD of residual solid ([2]; FeSSIF): FB Form C
pH at 24 hrs ([2]; FeSSIF): 4.4
Solubility ([2]; FeSSIF): 240 µg/mL and 220 µg/mL
Average Solubility ([2]; SGF): >10500 µg/mL
pH at 24 hrs ([2]; SGF): 1.7
Solubility ([2]; SGF): >10200 µg/mL and >10700 µg/mL
SMILES: C#Cc1cc(OC)c(-c2c(-c3ccc(Oc4nccc(C)n4)c(F)c3)c3c(C)ncnc3n2C)cn1.O=S(=O)(O)O [SO4 Form A]

SMILES: C#Cc1cc(C)c(-c2c(-c3ccc(Oc4nccc(C)n4)c(F)c3)c3c(C)ncnc3n2C)c(C)n1.O=S(=O)(O)c1ccccc1 [BSA Form A]
Storage at 40° C./75% RH for one week (row head not given) [1]: Change in form -

SMILES: C=C(C)C(=O)Nc1ccc(-c2c(C3=CC[C@H](C(=O)N4CCCC4)CC3)c3c(N)ncnc3n2C)c(C)c1.Cl [Compound II-2]
XRPD after storage at 40° C./75% RH for 7 days [1]: no change

SMILES: C#Cc1cc(C)c(-c2c(-c3ccc(Oc4nccc(C)n4)c(F)c3)c3c(C)ncnc3n2C)c(C)n1.Cc1ccc(S(=O)(=O)O)cc1 [Compound IV-3]
XRPD after storage at 40° C./75% RH for 7 days ([1]; listed as Compound IV pTSA Form A): pTSA Form B
XRPD after storage at 40° C./75% RH for 7 days ([1]; listed as Compound IV-1 tosylate salt): change form
XRPD of residual solids after solubility measurement ([2]; FaSSIF): remained unchanged
XRPD of residual solids after solubility measurement ([2]; FeSSIF): too poorly crystalline to assign
XRPD of residual solids after solubility measurement ([2]; SGF): remained unchanged
